# Measured values taken from publication PMC5809414, “Physician-initiated clinical study of limb ulcers treated with a functional peptide, SR-0379: from discovery to a randomized, double-blind, placebo-controlled trial” (NPJ Aging and Mechanisms of Disease, 2018).
# Where “and” joins values, the source holds several entries; their conditions need not be identical. Equal entries are not always repeated. Where two headings read alike, the source gives them in different places. Where a SMILES comes first, the peptide text is derived from it. [ ]: non-standard residue; d: D form.
# Columns and labels:
# venous leg ulcers = conditions: cited from earlier work
# Source text: Recently, another anti-microbial peptide, LL-37, was similarly evaluated for venous leg ulcers.[26] The study design consisted of a 4-week randomized double-blind t ...
# healthy men = test system: healthy men; set-up: species or system human; conditions: in vivo
# Description: A closed patch test was performed with SR-0379 at Shinanozaka Clinic (Shinjuku, Tokyo, Japan); the study protocol was approved by the Shinanozaka Clinic institutional review board. The registry number is UMIN000015391, and the URL is https://upload.umin.ac.jp/cgi-open-bin/ctr_e/ctr_view.cgi?recptno=R000017479. Sixty-six men were screened after obtaining informed consent, and a total of 20 healthy men were enrolled for the patch test after obtaining informed consent between October and November 2014. The inclusion criteria for healthy men were: (1) adult age (≧20 years and ≦40 years); (2) body mass index (≧18.5 and <25.0 kg/m^2); and (3) systolic blood pressure (SBP, ≦140 mmHg) and diastolic blood pressure (DBP, ≦90 mmHg); additionally, patients were to be within normal limits in an ECG test. The exclusion criteria were drug allergy or a history thereof, atopic dermatitis or allergic contact dermatitis, skin with dermatitis or inflammation, organ failure (heart, liver, kidney, blood), and others. The closed patch test was performed with a Finn chamber (7 mm) using filter paper containing 0.015 mL of SR-0379 solution (0%, 0.02%, 0.1%, 0.25%, or 0.5%). The allocation was generated by a coordinator and masked for the evaluator. […] Results were evaluated at 1 and 24 h after removal and graded according to the International Contact Dermatitis Research Group criteria (grades 1–6). […]
# leg ulcers = test: Phase I/IIa randomized, double-blind, placebo-controlled study: wound size, closure, DESIGN-R, overall improvement; format: in vivo, human; conditions: for skin ulcer rate of reduction at the final evaluation (4th week or discontinuation): vs pre-treatment wound size, mean ± SD; for skin ulcer rate of reduction at the final evaluation (4th week or discontinuation) / Overall improvement, Mild: number of patients / Overall improvement, Moderate: number of patients / Overall improvement, No change: number of patients / Overall improvement, Worse: number of patients / Skin ulcer size, 2 weeks after treatment (mean ± SD) / Skin ulcer size, Post-treatment (mean ± SD) / Wound closure, Yes: number of patients (%) / DESIGN-R total score, Post-mean (SD) / Overall improvement, Significant: number of patients: n = 3; for DESIGN-R total score, Pre-mean (SD): n = 3, baseline; for DESIGN-R total score, Pre-mean (SD) / DESIGN-R total score, Post-mean (SD): depth excluded, 0 (healed) to 66; for Overall improvement, Significant: number of patients: evaluation by investigators
# Description: GMP-grade SR-0379 peptide was generated by the American Peptide Company (Torrance, CA, USA). The peptide was dissolved in a physiological salt solution, and spray-type containers were charged with 10 mL of SR-0379 solution under GMP conditions by Nagase Medical Co. Ltd. (Itami, Hyogo, Japan). A total of 0.05 mL of SR-0379 solution was administered per spray using this container. According to the protocol, each patient received 0.25 mL of SR-0379 solution over five sprays once per day for 28 days.
# The clinical trial was conducted as an investigator-initiated, phase I/IIa, randomized, double-blind, placebo-controlled trial at five hospitals (Osaka University Hospital, Osaka; Chiba University Hospital, Chiba; Asano-Kanamachi Clinic, Tokyo; Medical Plaza Shinozakieki Nishiguchi, Tokyo; and Kasukabe Chuo General Hospital, Saitama) in Japan. Twelve patients were randomized into four groups and treated with 0.02%, 0.1%, or 0.5% SR-0379 or placebo treatment. The inclusion criteria for this clinical trial were: (1) adult (age≧20 years), (2) a diagnosis of diabetic ulcer or limb ulcer (artery or venous ulcer); and (3) wound size <6 cm in diameter. Exclusion criteria is (1) infection to be cured with antibiotics, (2) deep ulcer with reaching bone tissue, (3) skin ulcer with malignant tumor, (4) severe edema around skin ulcer, (5) patients with malignant tumor, (6) patients with severe heart failure, (7) patients with severe liver, kidney, and blood dysfunction, (8) malnutrition (serum albumin ≦2 g/dL), (9) poor general condition due to severe systemic infection, (10) poor control of hyperglycemia (HbA1c ≧9.0%), (11) pregnant women, and men or women who disagreed to avoid pregnancy during clinical trial period, (12) patients who changed from an oral to an intravenous drug to regulate blood flow (i.e., prostaglandin E1, prostacyclin I2) from 2 weeks before SR-0379 or placebo treatment, (13) surgical procedure for skin ulcer from 2 weeks before SR-0379 or placebo treatment, (14) attendance to other clinical trial from 12 weeks before SR-0379 or placebo treatment, and (15) judgment as an inappropriate patient by principle investigator. The study protocol was approved by the institutional review board of each hospital. Patients gave written informed consent before enrollment.
# Twelve patients were randomized into four groups and treated with 0.02%, 0.1,% or 0.5% SR-0379 or placebo treatment. The allocation was generated by a computer program before starting the initial enrollment, and the allocation coordinator concealed the allocation information until the last patient finished. The placebo drug was indistinguishable in terms of appearance. The trial drugs were distributed to each hospital according to the allocation schedule for each patient. All study personnel and patients were masked to treatment group allocation.
# SR-0379 (0.02%, 0.1%, and 0.5%) or placebo was topically administered after cleaning with soap once per day for 28 days. After treatment, the wound was covered with a piece of gauze. […] No topical wound healing drugs were used in combination with SR-0379 or placebo for the same skin ulcer, and the topical use of FGF2 (trafermin) was prohibited starting 2 weeks before treatment through the final treatment.
# Upon study entry, clinical assessments, skin ulcer evaluations, blood and urine tests, chest radiographs, and ECGs were performed 1 week before treatment. Prior to the first treatment, clinical assessments and skin ulcer evaluations were performed, and plasma SR-0379 levels were measured at 15 and 60 min after the first treatment. After treatment, clinical assessments, skin ulcer evaluation, blood and urine tests, and ECGs were performed, and plasma SR-0379 levels were measured at 15 and 60 min after the final treatment. During the follow-up period (1 week after treatment), patients received appropriate treatment, including FGF2 (trafermin). […]
# [1] = test system: Pseudomonas aeruginosa, Staphylococcus aureus, MRSA, and Streptococcus pyogenes; test: Bacterial wound cultures (change pre to post); format: in vivo, human; conditions: n = 3
# Description: (§1) The primary outcome was the rate of wound size reduction at 4 weeks after the first treatment compared with pre-treatment wound size. Additionally, the following secondary endpoints were measured at 4 weeks after the first treatment and compared with pre-treatment status: time to wound closure; 50% wound size reduction ratio; quantification of Pseudomonas aeruginosa, Staphylococcus aureus, MRSA, and Streptococcus pyogenes; and overall evaluated ulcer improvement. Ulcer size was quantified based on skin ulcer pictures according to a defined procedure using ImageJ software and calculated as the percent change. We also used the DESIGN-R score index, which is calculated based on six components (exudate, size, infection/inflammation, granulation tissue, necrotic tissue, and pocket size), as a tool to score pressure ulcer severity.[23] Depth was excluded from the calculation. The total score was calculated by weighting the score of each item; a high score indicates greater severity. The safety of SR-0379 was evaluated during the treatment period (28 days) every 7 days and post-treatment (7 days) according to the Common Terminology Criteria for Adverse Events (version 4.0).
# [2] = Safety evaluation (adverse events) in the clinical study; format: in vivo, human
# Description: as §1
# infected wound = conditions: rat infected wound model, compared with FGF2; cited from earlier work
# [3] = test system: endothelial cell and fibroblast; conditions: in vitro; cited from earlier work
# Source text: SR-0379 also promoted angiogenesis, granulation tissue formation, and endothelial cell and fibroblast proliferation in vitro. In this study, we conducted a multi-center, double-blinded, randomized phase I/IIa clinical study to evaluate the safety, efficacy, and pharmacokinetics of SR-0379 for the treatment of leg ulcers.
compound,measurement,setting,value
LL-37,healing rate constants,"venous leg ulcers; 0.5 mg/mL LL-37, 4-week treatment, p = 0.003 vs placebo",higher than those for placebo
same,healing rate constants,"venous leg ulcers; 1.6 mg/mL LL-37, 4-week treatment, p = 0.088 vs placebo",higher than those for placebo
CC[C@H](C)[C@H](NC(=O)[C@H](CC(C)C)NC(=O)[C@H](CCCCN)NC(=O)[C@H](CC(C)C)NC(=O)[C@@H](N)CCSC)C(=O)N[C@@H](Cc1ccccc1)C(=O)N[C@@H](CC(C)C)C(=O)N[C@@H](Cc1c[nH]cn1)C(=O)N[C@@H](CCCNC(=N)N)C(=O)N[C@@H](CC(C)C)C(=O)N[C@@H](CCCCN)C(=O)N[C@@H](CCCNC(=N)N)C(=O)N[C@@H](CCSC)C(=O)N[C@@H](CCCNC(=N)N)C(=O)N[C@@H](CCCCN)C(=O)N[C@@H](CCCNC(=N)N)C(=O)N[C@@H](CC(C)C)C(=O)N[C@H](CCCCN)C(=O)N[C@@H](CCCNC(=N)N)C(=O)N[C@@H](CCCCN)C(=O)O [SR-0379] (H-MLKLIFLHRLKRMRKRL[dK]RK-OH; N-terminus and C-terminus assumed),"skin irritation index scores, assessment",healthy men,within permitted levels for clinical usage
same,vital signs and electrocardiogram (ECG),healthy men,no abnormal findings
same,"Size reduction (percent decrease) of skin ulcers, mean","leg ulcers; 0.02% SR-0379, 2 weeks after treatment",-3.157%
same,"Size decrease, single patient","leg ulcers; 0.02% SR-0379, diabetic ulcer, foot (lateral malleolus), Werner Syndrome patient",61.45%
same,"Size decrease, single patient","leg ulcers; 0.02% SR-0379, diabetic ulcer, low leg",75.00%
same,"Size decrease, single patient","leg ulcers; 0.02% SR-0379, ischemic ulcer, finger",-2.27%
same,skin ulcer rate of reduction at the final evaluation (4th week or discontinuation),leg ulcers; 0.02% SR-0379 topical once per day for 28 days,44.73 ± 41.26% and 44.727%
same,"Overall improvement, Mild: number of patients",leg ulcers; 0.02% group,1
same,"Overall improvement, Moderate: number of patients",leg ulcers; 0.02% group,1
same,"Overall improvement, No change: number of patients",leg ulcers; 0.02% group,0
same,"Overall improvement, Worse: number of patients",leg ulcers; 0.02% group,1
same,"Skin ulcer size, 2 weeks after treatment (mean ± SD)",leg ulcers; 0.02% group,0.777 ± 0.783
same,"Skin ulcer size, Post-treatment (mean ± SD)",leg ulcers; 0.02% group,0.563 ± 0.698
same,"Wound closure, Yes: number of patients (%)",leg ulcers; 0.02% group,0 (0%)
same,"DESIGN-R total score, Pre-mean (SD)",leg ulcers; 0.02% group,9.3 (4.7)
same,"DESIGN-R total score, Post-mean (SD)",leg ulcers; 0.02% group,4.3 (1.5)
same,"Overall improvement, Significant: number of patients",leg ulcers; 0.02% group,1
same,"Size reduction (percent decrease) of skin ulcers, mean","leg ulcers; 0.1% SR-0379, 2 weeks after treatment",38.36%
same,"Size decrease, single patient","leg ulcers; 0.1% SR-0379, diabetic ulcer, foot (heel), Werner Syndrome patient",34.93%
same,"Size decrease, single patient","leg ulcers; 0.1% SR-0379, diabetic ulcer, foot, patient with skin abrasion",87.50%
same,"Size decrease, single patient","leg ulcers; 0.1% SR-0379, ischemic ulcer, finger",82.32%
same,skin ulcer rate of reduction at the final evaluation (4th week or discontinuation),leg ulcers; 0.1% SR-0379 topical once per day for 28 days,68.25 ± 28.98% and 68.247%
same,"Overall improvement, Mild: number of patients",leg ulcers; 0.1% group,1
same,"Overall improvement, Moderate: number of patients",leg ulcers; 0.1% group,1
same,"Overall improvement, No change: number of patients",leg ulcers; 0.1% group,0
same,"Overall improvement, Worse: number of patients",leg ulcers; 0.1% group,0
same,"Skin ulcer size, 2 weeks after treatment (mean ± SD)",leg ulcers; 0.1% group,0.320 ± 0.381
same,"Skin ulcer size, Post-treatment (mean ± SD)",leg ulcers; 0.1% group,0.473 ± 0.488
same,"Wound closure, Yes: number of patients (%)",leg ulcers; 0.1% group,0 (0%)
same,"DESIGN-R total score, Pre-mean (SD)",leg ulcers; 0.1% group,9.0 (1.0)
same,"DESIGN-R total score, Post-mean (SD)",leg ulcers; 0.1% group,5.3 (4.0)
same,"Overall improvement, Significant: number of patients",leg ulcers; 0.1% group,1
same,"Size reduction (percent decrease) of skin ulcers, mean","leg ulcers; 0.5% SR-0379, 2 weeks after treatment",14.443%
same,"Size decrease, single patient","leg ulcers; 0.5% SR-0379, diabetic ulcer, foot, complete ulcer closure",100%
same,"Size decrease, single patient","leg ulcers; 0.5% SR-0379, venous ulcer, low leg",14.84%
same,skin ulcer rate of reduction at the final evaluation (4th week or discontinuation),leg ulcers; 0.5% SR-0379 topical once per day for 28 days,71.61 ± 49.17% and 71.613%
same,"Overall improvement, Mild: number of patients",leg ulcers; 0.5% group,0
same,"Overall improvement, Moderate: number of patients",leg ulcers; 0.5% group,3
same,"Overall improvement, No change: number of patients",leg ulcers; 0.5% group,0
same,"Overall improvement, Worse: number of patients",leg ulcers; 0.5% group,0
same,"Skin ulcer size, 2 weeks after treatment (mean ± SD)",leg ulcers; 0.5% group,1.910 ± 3.179
same,"Skin ulcer size, Post-treatment (mean ± SD)",leg ulcers; 0.5% group,1.760 ± 3.048
same,"DESIGN-R total score, Pre-mean (SD)",leg ulcers; 0.5% group,12.0 (7.2)
same,"DESIGN-R total score, Post-mean (SD)",leg ulcers; 0.5% group,5.3 (5.1)
same,"Overall improvement, Significant: number of patients",leg ulcers; 0.5% group,0
same,"Bacterial wound cultures, Decrease: number of patients",[1]; 0.02% group,2
same,"Bacterial wound cultures, Increase: number of patients",[1]; 0.02% group,1
same,"Bacterial wound cultures, No change: number of patients",[1]; 0.02% group,0
same,"Bacterial wound cultures, Decrease: number of patients",[1]; 0.1% group,2
same,"Bacterial wound cultures, Increase: number of patients",[1]; 0.1% group,0
same,"Bacterial wound cultures, No change: number of patients",[1]; 0.1% group,1
same,"Bacterial wound cultures, Decrease: number of patients",[1]; 0.5% group,1
same,"Bacterial wound cultures, Increase: number of patients",[1]; 0.5% group,0
same,"Bacterial wound cultures, No change: number of patients",[1]; 0.5% group,1
same,Adverse event: Outcome,"[2]; 0.5% SR-0379, person, pneumonia",Death
same,Adverse event: Causality,"[2]; human, in vivo",No
same,"local adverse events such as itching, rash, or pain during treatment","[2]; human, in vivo",no local adverse events
same,relation of all adverse events to SR-0379 treatment,"[2]; human, in vivo",unrelated
same,wound healing effect,infected wound,higher than that of fibroblast growth factor 2 (FGF2)
same,"angiogenesis, granulation tissue formation, and endothelial cell and fibroblast proliferation",[3],promoted
